Results: article PMC9144936, “New Cu^+2 Complexes with N-Sulfonamide Ligands: Potential Antitumor, Antibacterial, and Antioxidant Agents” (Molecules, 2022)

What was measured:
supercoiled pUC18 DNA = test: DNA cleavage (nuclease activity), agarose gel electrophoresis with H2O2/ascorbic acid; assay type: biochemical; settings: 37 °C; for effect of sodium azide on the ability to destroy the nucleic acid molecule: complex 10 μM, ascorbic acid/H2O2, 1 h, NaN3 400 mM; for concentration at which the circular shape of DNA appears / concentration at which the linear shape of DNA appears: pUC18, cacodylate buffer 0.1 M pH 6.0, H2O2/ascorbic acid, 1 h
Description: The activity of the complexes as chemical nucleases was studied using supercoiled pUC18 DNA in cacodylate buffer (0.1M, pH 6.0) in the presence of H2O2/ascorbic acid, with a 3.0-fold excess relative to the complex concentration. The efficiency of the complexes was compared with that of both copper sulfate and bis(o-phenanthroline) Cu^+2 complex under the same reaction conditions.
The nuclease activity of the complexes C1 and C2 was studied in the presence of certain inhibiting agents: DMSO, t-butyl alcohol, distamycin, sodium azide, 2,2,6,6-tetramethyl-4-piperidone, superoxide dismutase, and neocuproine, in an attempt to determine the ROS involved in the degradation process of the DNA molecule. We chose a concentration of 10 μM for the complexes and a concentration […] for the reducing agents ascorbic acid/H2O2. The incubation period of the samples was 1 h, at 37 °C. The resulting electropherograms are presented in Figure S8 in the Supplementary Material.
Reactions were performed by mixing 7 μL of cacodylate buffer 0.1 M, pH 6 (cacodylic acid/sodium cacodylate), 6 μL of complex solution (final concentrations: 5, 10, 15, and 20 μM), 1 μL of pUC18 DNA solution (0.25 μg/μL, 750 μM in base pairs), and 6 μL of activating agent solution (H2O2/ascorbic acid) in a 3-fold molar excess relative to the concentration of the complex. The resulting solutions were incubated for 1 h at 37 °C, after which a quench buffer solution (3 μL) consisting of bromophenol blue (0.25%), xylene cyanol (0.25%), and glycerol (30%) was added. The solution was then subjected to electrophoresis on 0.8% agarose gel in 0.5 × TBE buffer (0.045 M Tris, 0.045 M boric acid, and 1 mM EDTA) containing 5 μL/100 mL of a solution of ethidium bromide (10 mg/mL) at 100 V for 2 h. The bands were photographed on a capturing system (Gelprinter Plus TDI).
To test for the presence of reactive oxygen species (ROS) generated during strand scission and for possible complex–DNA interaction sites, various reactive oxygen intermediate scavengers and groove binders were added to the reaction mixtures. The scavengers used were 2,2,6,6-tetramethyl-4-piperidone (0.5 M), dimethylsulfoxide (DMSO) 14 M, t-butyl alcohol (10.5 M), sodium azide (NaN3) (400 mM), and superoxide dismutase (SOD) (15 units). In addition, a chelating agent of copper(I) and neocuproine (36 μM), along with the groove binder distamycin (80 μM) were also assayed. Samples were treated as described above.

[1] = SOD mimetic activity, xanthine/xanthine oxidase system, NBT reduction; assay type: biochemical; settings: pH 7.8, read-out: SOD-like activity IC50 (50% inhibition of NBT reduction)
Experimental: The SOD-like activities of complexes C1 and C2 were determined by an indirect method using the xanthine/xanthine oxidase system as the source of superoxide radicals. […] The IC50 value for native Cu2Zn2SOD is 0.006 μΜ. Thus, the IC50 values for both complexes are higher than the IC50 value for native Cu2Zn2SOD but are similar to those of complexes with related sulfonamide ligands presented in the literature.
The in vitro SOD mimetic activities of the complexes were assayed using the Oberley and Spitz method with some minor modifications. To generate a reproductible and constant flux of superoxide anions, xanthine (1.5 × 10^−4 M) and xanthine oxidase in 50 mM potassium phosphate buffer, pH = 7.8, were used. The superoxide anions were detected by the reduction of nitro blue tetrazolium (NBT) (5.6 × 10^−5 M) to blue formazane, which was determined spectrophotometrically at 560 nm. Different concentrations of the complexes (50, 25, 12.5, 2, and 0.2 μM) were prepared in 50 mM Tris-HCl buffer, pH = 7.8. For each determination, 0.1 mL complex solution + 0.1 mL xanthine oxidase were added to 0.8 mL of solution containing 0.69 mL potassium phosphate buffer (pH = 7.8), 0.025 mL NBT, and […]. The inhibition percentage of NBT reduction was used to determine the SOD activities of the complexes. The conversion of xanthine to uric acid was measured at 310 nm. The % inhibition of enzyme activity was subtracted from that of NBT. The IC50 values (the concentration of complex needed to yield 50% inhibition of NBT reduction) were determined from plots of % inhibition versus complex concentration. A Specord 200 Plus Spectrophotometer was used to perform the determinations and all reagents were purchased from Sigma-Aldrich.

[2] = test system: Staphylococcus aureus ATCC 6538P; test: MIC, serial broth microdilution, S. aureus; assay type: cell-based; settings: 24 h, 37 °C
Experimental: (§1) The values of MIC, defined as the lowest concentration of antimicrobial complex that prevents visible growth of germs, are presented in Table S4 in the Supplementary Material. To quantify the copper complexes effectiveness as antibacterial agents, their minimum inhibitory concentrations (MICs) were determined using the serial broth microdilution method described by Quinn et al. and Markey et al.. The method was adapted for the purposes of the current study, according to the standards developed by the Clinical and Laboratory Standards Institute. The tests were performed on the same Gram-positive and Gram-negative reference microbial strains. Ten successive dilutions of the copper complexes solutions (1/2 to 1/1024) in nutrient broth (Merck KGaA, Darmstadt, Germany) were performed and then were placed in sterile microplates (one each for every copper complex). The microplates were incubated at 37 ± 2 °C for 24 h. Comparisons of the amount of bacterial growth in each well containing copper complexes solutions with the amount of growth in the growth control wells were performed and the maximal dilution for which the tested copper complexes inhibited bacterial growth was determined.

[3] = test system: Escherichia coli ATCC 10536; test: MIC, serial broth microdilution, E. coli; assay type: cell-based; settings: 24 h, 37 °C
Experimental: as §1

Substance: [Cu(N-(5-Ethyl--[1,3,4]-Thiadiazole-2-yl) Naphtalenesulfonamidate)2(py)2(H2O)] [C2]
- effect of sodium azide on the ability to destroy the nucleic acid molecule (supercoiled pUC18 DNA): little effect
- concentration at which the circular shape of DNA appears (supercoiled pUC18 DNA): 10 µM
- concentration at which the linear shape of DNA appears (supercoiled pUC18 DNA): 15 µM
- IC50 [1]: 174 nM
- MIC [2]: 0.202 µg/mL
- MIC [3]: 0.184 µg/mL

Substance: [Cu(N-(5-(4-Methylphenyl)-[1,3,4]-Thiadiazole-2-yl) Naphtalenesulfonamidate)2(H2O)3] [C1]
- effect of sodium azide on the ability to destroy the nucleic acid molecule (supercoiled pUC18 DNA): little effect
- concentration at which the circular shape of DNA appears (supercoiled pUC18 DNA): 15 µM
- concentration at which the linear shape of DNA appears (supercoiled pUC18 DNA): 20 µM
- IC50 [1]: 283 nM
- MIC [2]: 0.289 µg/mL
- MIC [3]: 0.231 µg/mL
